The source of these data is US20250122218A1, “MODULATORS OF CYSTIC FIBROSIS TRANSMEMBRANE CONDUCTANCE REGULATOR” (Vertex Pharmaceuticals Incorporated, priority 2022, published 2025).

The experiment concerns the target T1, CFTR in F508del/MF-HBE cells (Homo sapiens, UniProt P13569, DEL508-508).
T1 construct: human bronchial epithelial (HBE) cells derived from CF subjects heterozygous for F508del and a minimal function CFTR mutation; endogenous in cells; host or cells: primary human bronchial epithelial cells from CF subjects (F508del/MF-HBE)
Kind of experiment: Ussing chamber assay of CFTR-mediated short-circuit currents (identification of potentiator compounds). It counts as cell-based. As to conditions: potentiator incubated 18-24 hours at 37° C. in combination with 10 μM corrector, in the presence of 20% human serum, CFTR-mediated ISC. In a few lines:
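F508del/MF-HBE cultures were preincubated 18-24 h at 37° C with potentiator plus 10 μM of a fixed corrector compound in 20% human serum; compounds were kept present during measurement. ISC was recorded under voltage clamp (0 mV, 37° C, amiloride apical) and taken as the 20 μM forskolin peak minus the current after inhibitor cocktail.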

T1 sequence (P13569 with tags, fused parts or gaps DEL508-508): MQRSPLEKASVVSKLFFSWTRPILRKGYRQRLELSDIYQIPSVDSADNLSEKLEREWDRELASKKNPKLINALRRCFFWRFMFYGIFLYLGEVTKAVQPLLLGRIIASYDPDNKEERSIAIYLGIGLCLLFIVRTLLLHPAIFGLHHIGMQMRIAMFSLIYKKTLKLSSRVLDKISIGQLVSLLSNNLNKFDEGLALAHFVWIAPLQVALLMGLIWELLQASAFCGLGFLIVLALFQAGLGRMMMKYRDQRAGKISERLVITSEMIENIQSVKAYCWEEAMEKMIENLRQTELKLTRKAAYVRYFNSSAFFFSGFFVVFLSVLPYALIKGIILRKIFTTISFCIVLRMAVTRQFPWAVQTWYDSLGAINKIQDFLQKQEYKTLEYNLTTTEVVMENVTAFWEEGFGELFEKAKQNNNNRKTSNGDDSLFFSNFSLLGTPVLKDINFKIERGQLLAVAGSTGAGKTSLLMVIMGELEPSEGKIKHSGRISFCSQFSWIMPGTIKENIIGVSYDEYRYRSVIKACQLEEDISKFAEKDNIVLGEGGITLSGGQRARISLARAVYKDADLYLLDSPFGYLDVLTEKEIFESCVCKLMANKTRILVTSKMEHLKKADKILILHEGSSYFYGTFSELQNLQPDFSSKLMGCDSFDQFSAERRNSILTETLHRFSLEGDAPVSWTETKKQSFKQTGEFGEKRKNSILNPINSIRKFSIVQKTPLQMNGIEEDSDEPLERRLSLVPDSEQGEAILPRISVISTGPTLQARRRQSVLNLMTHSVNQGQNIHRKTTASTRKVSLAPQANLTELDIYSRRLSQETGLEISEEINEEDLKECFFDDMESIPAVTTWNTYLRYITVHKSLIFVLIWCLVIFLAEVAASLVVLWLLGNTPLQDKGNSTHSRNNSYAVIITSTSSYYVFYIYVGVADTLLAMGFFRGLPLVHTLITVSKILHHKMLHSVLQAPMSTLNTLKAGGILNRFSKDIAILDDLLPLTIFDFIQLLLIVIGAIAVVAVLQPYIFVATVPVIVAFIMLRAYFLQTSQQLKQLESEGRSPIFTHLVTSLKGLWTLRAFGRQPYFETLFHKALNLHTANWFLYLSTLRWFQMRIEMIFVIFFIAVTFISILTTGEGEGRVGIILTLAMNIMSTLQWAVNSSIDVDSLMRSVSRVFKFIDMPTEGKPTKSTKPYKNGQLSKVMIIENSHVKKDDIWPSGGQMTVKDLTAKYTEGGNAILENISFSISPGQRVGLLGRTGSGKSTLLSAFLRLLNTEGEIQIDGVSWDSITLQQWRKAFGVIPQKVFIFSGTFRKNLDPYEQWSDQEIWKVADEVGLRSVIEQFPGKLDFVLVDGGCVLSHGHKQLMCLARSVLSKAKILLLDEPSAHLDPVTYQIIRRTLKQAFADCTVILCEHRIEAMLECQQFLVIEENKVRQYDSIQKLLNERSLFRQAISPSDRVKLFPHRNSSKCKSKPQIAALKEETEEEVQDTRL

The EC50 is the concentration needed to bring the measured effect to its halfway point. On to `N#CC1CCCCc2cccc(c2)C(O)(C(F)(F)F)C2=NN=C(O2)c2nc1c(C(F)(F)F)cc2N` (centres unmarked) [Compound 64, 20-amino-6-hydroxy-6,18-bis(trifluoromethyl)-23-oxa-3,4,21-triazatetracyclo[15.3.1.12,5.17,11]tricosa-1(21),2,4,7,9,11(22),17,19-octaene-16-carbonitrile], for which the EC50 is under 500 nM.

For the compound `N#CC1CCCCc2ccc(F)c(c2)C(O)(C(F)(F)F)C2=NN=C(O2)c2nc1c(C(F)(F)F)cc2N` (centres unmarked) [Compound 69, 20-Amino-8-fluoro-6-hydroxy-6,18-bis(trifluoromethyl)-23-oxa-3,4,21-triazatetracyclo[15.3.1.12,5.17,11]tricosa-1(21),2,4,7,9,11(22),17,19-octaene-16-carbonitrile], the EC50 was under 500 nM.

In the case of `COc1ccc(CN2CCCCC[C@](O)(C(F)(F)F)C3=NN=C(O3)c3nc(c(C(F)(F)F)cc3N)C2=O)cc1` [Compound 76, (6R)-17-Amino-6-hydroxy-12-[(4-methoxyphenyl)methyl]-6,15-bis (trifluoromethyl)-19-oxa-3,4,12,18-tetrazatricyclo [12.3.1.12,5] nonadeca-1(18),2,4,14,16-pentaen-13-one], the EC50 is under 500 nM.

For `CC(C)(C)CN1CCCCC[C@](O)(C(F)(F)F)C2=NN=C(O2)c2nc(c(C(F)(F)F)cc2N)C1=O` [Compound 80, (6R)-17-Amino-12-(2,2-dimethylpropyl)-6-hydroxy-6,15-bis (trifluoromethyl)-19-oxa-3,4,12,18-tetrazatricyclo [12.3.1.12,5] nonadeca-1(18),2,4,14,1 6-pentaen-13-one], the EC50 is under 500 nM.

Consider `Nc1cc(C(F)(F)F)c2nc1-c1nnc(o1)[C@@](O)(C(F)(F)F)CCCCCN(C1CCCCC1)C2=O` [Compound 81, (6R)-17-Amino-12-cyclohexyl-6-hydroxy-6,15-bis (trifluoromethyl)-19-oxa-3,4,12,18-tetrazatricyclo [12.3.1.12,5] nonadeca-1(18),2,4,14,1 6-pentaen-13-one], for which the EC50 is under 500 nM.

As for `CCCN1CCCCC[C@](O)(C(F)(F)F)C2=NN=C(O2)c2nc(c(C(F)(F)F)cc2N)C1=O` [Compound 82, (6R)-17-Amino-6-hydroxy-12-propyl-6,15-bis (trifluoromethyl)-19-oxa-3,4,12,18-tetrazatricyclo [12.3.1.12,5] nonadeca-1(18),2,4,14,1 6-pentaen-13-one], the EC50 was under 500 nM.

As for `Nc1cc(C(F)(F)F)c2nc1-c1nnc(o1)[C@@](O)(C(F)(F)F)CCCCCN(CC1CC1)C2=O` [Compound 83, (6R)-17-Amino-12-(cyclopropylmethyl)-6-hydroxy-6,15-bis(trifluoromethyl)-19-oxa-3,4,12,18-tetrazatricyclo [12.3.1.12,5] nonadeca-1(18),2,4,14,1 6-pentaen-13-one], the EC50 was under 500 nM.

Take `Nc1cc(C(F)(F)F)c2nc1-c1nnc(o1)[C@@](O)(C(F)(F)F)CCCCCN(C1CC(F)(F)C1)C2=O` [Compound 84, (6R)-17-Amino-12-(3,3-difluorocyclobutyl)-6-hydroxy-6,15-bis (trifluoromethyl)-19-oxa-3,4,12,18-tetrazatricyclo [12.3.1.12,5] nonadeca-1(18),2,4,14,1 6-pentaen-13-one]: the EC50 was under 500 nM.

With `CC(C)(C)N1CCCCC[C@](O)(C(F)(F)F)C2=NN=C(O2)c2nc(c(C(F)(F)F)cc2N)C1=O` [Compound 85, (6R)-17-Amino-12-tert-butyl-6-hydroxy-6,15-bis(trifluoromethyl)-19-oxa-3,4,12,18-tetrazatricyclo [12.3.1.12,5] nonadeca-1(18),2,4,14,1 6-pentaen-13-one], the EC50 was under 500 nM.

In the case of `Nc1cc(C(F)(F)F)c2nc1-c1nnc(o1)[C@@](O)(C(F)(F)F)CCCCCN(C13CC(C1)C3)C2=O` [Compound 86, (6R)-17-Amino-12-(1-bicyclo[1.1.1]pentanyl)-6-hydroxy-6,15-bis (trifluoromethyl)-19-oxa-3,4,12,18-tetrazatricyclo [12.3.1.12,5] nonadeca-1(18),2,4,14,1 6-pentaen-13-one], the EC50 is under 500 nM.

In the case of `Nc1cc(C(F)(F)F)c2nc1-c1nnc(o1)[C@@](O)(C(F)(F)F)CCCCCN(C1CC3(CCC3)C1)C2=O` [Compound 87, (6R)-17-Amino-6-hydroxy-12-spiro[3.3]heptan-2-yl-6,15-bis(trifluoromethyl)-19-oxa-3,4,12,18-tetrazatricyclo [12.3.1.12,5] nonadeca-1(18),2,4,14,1 6-pentaen-13-one], the EC50 was under 500 nM.

`CC[C@H](C)N1CCCCC[C@](O)(C(F)(F)F)C2=NN=C(O2)c2nc(c(C(F)(F)F)cc2N)C1=O` [Compound 88, (6R)-17-Amino-6-hydroxy-12-[(1S)-1-methylpropyl]-6,15-bis (trifluoromethyl)-19-oxa-3,4,12,18-tetrazatricyclo [12.3.1.12,5] nonadeca-1(18),2,4,14,1 6-pentaen-13-one]: the EC50 is under 500 nM.

As for `CC[C@@H](C)N1CCCCC[C@](O)(C(F)(F)F)C2=NN=C(O2)c2nc(c(C(F)(F)F)cc2N)C1=O` [Compound 89, (6R)-17-Amino-6-hydroxy-12-[(1R)-1-methylpropyl]-6,15-bis (trifluoromethyl)-19-oxa-3,4,12,18-tetrazatricyclo [12.3.1.12,5] nonadeca-1(18),2,4,14,1 6-pentaen-13-one], the EC50 was under 500 nM.

Turning to `CCC(C)(C)N1CCCCC[C@](O)(C(F)(F)F)C2=NN=C(O2)c2nc(c(C(F)(F)F)cc2N)C1=O` [Compound 90, (6R)-17-Amino-12-(1,1-dimethylpropyl)-6-hydroxy-6,15-bis(trifluoromethyl)-19-oxa-3,4,12,18-tetrazatricyclo [12.3.1.12,5] nonadeca-1(18),2,4,14,1 6-pentaen-13-one], the EC50 was under 500 nM.

In the case of `Nc1cc(C(F)(F)F)c2nc1-c1nnc(o1)[C@@](O)(C(F)(F)F)CCCCCN(C1CCC(F)(F)CC1)C2=O` [Compound 91, (6R)-17-Amino-12-(4,4-difluorocyclohexyl)-6-hydroxy-6,15-bis (trifluoromethyl)-19-oxa-3,4,12,18-tetrazatricyclo [12.3.1.12,5] nonadeca-1(18),2,4,14,1 6-pentaen-13-one], the EC50 was under 500 nM.

For the compound `Nc1cc(C(F)(F)F)c2nc1-c1nnc(o1)[C@@](O)(C(F)(F)F)CCCCCN(C1C3CC1C3)C2=O` (stereo partly drawn) [Compound 92, (6R)-17-Amino-12-(2-bicyclo[1.1.1]pentanyl)-6-hydroxy-6,15-bis(trifluoromethyl)-19-oxa-3,4,12,18-tetrazatricyclo [12.3.1.12,5] nonadeca-1(18),2,4,14,1 6-pentaen-13-one], the EC50 is under 500 nM.

Regarding `CC1(C)CC(N2CCCCC[C@](O)(C(F)(F)F)C3=NN=C(O3)c3nc(c(C(F)(F)F)cc3N)C2=O)C1` [Compound 93, (6R)-17-Amino-12-(3,3-dimethylcyclobutyl)-6-hydroxy-6,15-bis (trifluoromethyl)-19-oxa-3,4,12,18-tetrazatricyclo [12.3.1.12,5] nonadeca-1(18),2,4,14,1 6-pentaen-13-one], the EC50 was under 500 nM.

As for `CC1(N2CCCCC[C@](O)(C(F)(F)F)C3=NN=C(O3)c3nc(c(C(F)(F)F)cc3N)C2=O)CC1` [Compound 94, (6R)-17-Amino-6-hydroxy-12-(1-methylcyclopropyl)-6,15-bis (trifluoromethyl)-19-oxa-3,4,12,18-tetrazatricyclo [12.3.1.12,5] nonadeca-1(18),2,4,14,1 6-pentaen-13-one], the EC50 is under 500 nM.

As to `Nc1cc(C(F)(F)F)c2nc1-c1nnc(o1)[C@@](O)(C(F)(F)F)CCCCCN(C1CC3(C1)CC(F)(F)C3)C2=O` [Compound 95, (6R)-17-Amino-12-(2,2-difluorospiro [3.3]heptan-6-yl)-6-hydroxy-6,15-bis (trifluoromethyl)-19-oxa-3,4,12,18-tetrazatricyclo [12.3.1.12,5] nonadeca-1(18),2,4,14,1 6-pentaen-13-one], the concentration giving a half-maximal response (EC50) was under 500 nM.

Take `CC1(N2CCCCC[C@](O)(C(F)(F)F)C3=NN=C(O3)c3nc(c(C(F)(F)F)cc3N)C2=O)CC(F)(F)C1` [Compound 96, (6R)-17-Amino-12-(3,3-difluoro-1-methyl-cyclobutyl)-6-hydroxy-6,15-bis (trifluoromethyl)-19-oxa-3,4,12,18-tetrazatricyclo [12.3.1.12,5] nonadeca-1(18),2,4,14,1 6-pentaen-13-one]: the EC50 is under 500 nM.

Regarding `CC(C)(C)[C@H]1CC[C@H](N2CCCCC[C@](O)(C(F)(F)F)C3=NN=C(O3)c3nc(c(C(F)(F)F)cc3N)C2=O)CC1` [Compound 97, (6R)-17-Amino-12-(trans-4-tert-butylcyclohexyl)-6-hydroxy-6,15-bis (trifluoromethyl)-19-oxa-3,4,12,18-tetrazatricyclo [12.3.1.12,5] nonadeca-1(18),2,4,14,1 6-pentaen-13-one], the EC50 was under 500 nM.

Regarding `Nc1cc(C(F)(F)F)c2nc1-c1nnc(o1)[C@@](O)(C(F)(F)F)CCCCCN(C1CCOCC1)C2=O` [Compound 98, (6R)-17-Amino-6-hydroxy-12-tetrahydropyran-4-yl-6,15-bis (trifluoromethyl)-19-oxa-3,4,12,18-tetrazatricyclo [12.3.1.12,5] nonadeca-1(18),2,4,14,1 6-pentaen-13-one], the EC50 is under 500 nM.

For the compound `Nc1cc(C(F)(F)F)c2nc1-c1nnc(o1)[C@@](O)(C(F)(F)F)CCCCCN(C1CC3(CNC3)C1)C2=O` [Compound 99, (6R)-17-Amino-12-(2-azaspiro[3.3]heptan-6-yl)-6-hydroxy-6,15-bis (trifluoromethyl)-19-oxa-3,4,12,18-tetrazatricyclo [12.3.1.12,5] nonadeca-1(18),2,4,14,1 6-pentaen-13-one], the EC50 was over 1000 nM.
